According to US11926623B2, “Heterocycle derivatives as pesticides” (Bayer Aktiengesellschaft, priority 2018, dated 2024):
Like-named read-outs stand apart in the source and are kept apart here.

What was measured:
Myzus persicae [1] = experiment: Myzus persicae oral test; assay type: in vivo; conditions: 120 h, mixed population of green peach aphids, after 5 days, read-out: efficacy
Procedure: Myzus persicae—Oral Test [table] To produce a suitable preparation of active compound, 1 part by weight of active compound is dissolved using the specified parts by weight of solvent and made up with water until the desired concentration is attained. 50 μl of the active ingredient formulation are transferred into microtitre plates and made up to a final volume of 200 μl with 150 μl of IPL41 insect medium (33%+15% sugar). Subsequently, the plates are sealed with parafilm, which a mixed population of green peach aphids (Myzus persicae) within a second microtitre plate is able to puncture and imbibe the solution through. After 5 days, the efficacy in % is determined. 100% means that all the aphids have been killed; 0% means that no aphids have been killed.

Spodoptera frugiperda = Spodoptera frugiperda spray test; assay type: in vivo; conditions: foliar, 168 h, sprayed maize leaf discs, fall armyworm caterpillars, after 7 days, read-out: efficacy
Procedure: Spodoptera frugiperda—Spray Test [table] To produce a suitable active compound preparation, 1 part by weight of active compound is dissolved using the stated parts by weight of solvent and made up with water containing an emulsifier concentration of 1000 ppm until the desired concentration is attained. To produce further test concentrations, the formulation is diluted with emulsifier-containing water. Leaf discs of maize (Zea mays) are sprayed with an active compound formulation of the desired concentration and, after drying, populated with caterpillars of the fall armyworm (Spodoptera frugiperda). After 7 days, the efficacy in % is determined. 100% means that all the caterpillars have been killed; 0% means that no caterpillar has been killed.

Ctenocephalides felis = Ctenocephalides felis oral test; assay type: in vivo; conditions: 48 h, 100 ppm in citrated cattle blood, unfed adult cat fleas, after 2 days, read-out: efficacy (kill in %)
Procedure: Ctenocephalides felis—Oral Test [table] To produce a suitable active compound preparation, 10 mg of active compound are mixed with 0.5 ml of dimethyl sulfoxide. Dilution with citrated cattle blood gives the desired concentration. About 20 unfed adult cat fleas (Ctenocephalides felis) are placed into a chamber which is closed at the top and bottom with gauze. A metal cylinder whose bottom end is closed with parafilm is placed onto the chamber. The cylinder contains the blood/active compound formulation, which can be imbibed by the fleas through the parafilm membrane. After 2 days, the kill in % is determined. 100% means that all of the fleas have been killed; 0% means that none of the fleas have been killed.

Phaedon cochleariae = Phaedon cochleariae spray test; assay type: in vivo; conditions: 100 g/ha, sprayed Chinese cabbage leaf discs, mustard beetle larvae, after 7 days
Procedure: Phaedon cochleariae—Spray Test
(§1) To produce a suitable active compound preparation, 1 part by weight of active compound is dissolved using the stated parts by weight of solvent and made up with water containing an emulsifier concentration of 1000 ppm until the desired concentration is attained. To produce further test concentrations, the formulation is diluted with emulsifier-containing water.
Discs of Chinese cabbage leaves (Brassica pekinensis) are sprayed with an active compound formulation of the desired concentration and, after drying, populated with larvae of the mustard beetle (Phaedon cochleariae).
After 7 days, the efficacy in % is determined. 100% means that all the beetle larvae have been killed; 0% means that no beetle larvae have been killed.

Boophilus microplus = Boophilus microplus injection test; assay type: in vivo; conditions: 20 μg/animal, injection into engorged adult female cattle ticks, assessed after 7 days by laying of fertile eggs
Procedure: Boophilus microplus—Injection Test [table] To produce a suitable active compound preparation, 10 mg of active compound are mixed with 0.5 ml of solvent and the concentrate is diluted to the desired concentration with solvent. 1 μl of the active compound solution is injected into the abdomen of 5 engorged adult female cattle ticks (Boophilus microplus). The animals are transferred into dishes and kept in a climate-controlled room. Efficacy is assessed after 7 days by laying of fertile eggs. Eggs which are not visibly fertile are stored in a climate-controlled cabinet until the larvae hatch after about 42 days. An efficacy of 100% means that none of the ticks has laid any fertile eggs; 0% means that all the eggs are fertile.

Myzus persicae [2] = experiment: Myzus persicae spray test; assay type: in vivo; conditions: foliar, 120 h, sprayed Chinese cabbage leaf discs, all stages of the green peach aphid, after 5 days, read-out: efficacy
Procedure: Myzus persicae—Spray Test [table] To produce a suitable active compound preparation, 1 part by weight of active compound is dissolved using the stated parts by weight of solvent and made up with water containing an emulsifier concentration of 1000 ppm until the desired concentration is attained. To produce further test concentrations, the formulation is diluted with emulsifier-containing water. Discs of Chinese cabbage leaves (Brassica pekinensis) infested by all stages of the green peach aphid (Myzus persicae) are sprayed with an active compound formulation of the desired concentration. After 5 days, the efficacy in % is determined. 100% means that all the aphids have been killed; 0% means that no aphids have been killed.

[3] = log P by HPLC on reversed-phase column (C18), EEC Directive 79/831 Annex V.A8; assay type: physicochemical
Procedure: The log P values were determined according to EEC Directive 79/831 Annex V.A8 by HPLC (high-performance liquid chromatography) on a reversed-phase column (C18) using the following methods: ^[a] […] Calibration was carried out using a homologous series of straight-chain alkan-2-ones (having 3 to 16 carbon atoms) with known log P values. The values between successive alkanones are determined by linear regression.

Tetranychus urticae = Tetranychus urticae spray test, OP-resistant; assay type: in vivo; conditions: 20 g/ha, sprayed bean leaf discs, all stages of the greenhouse red spider mite, after 6 days
Procedure: Tetranychus urticae—Spray Test, OP-Resistant
as §1
Discs of bean leaves (Phaseolus vulgaris) infested with all stages of the greenhouse red spider mite (Tetranychus urticae) are sprayed with an active compound formulation of the desired concentration.
After 6 days, the efficacy in % is determined. 100% means that all the spider mites have been killed; 0% means that no spider mites have been killed.

chromatographic logP ([3]; LC-UV in the acidic range, formic acid in water / acetonitrile, read-out: log P[acidic]) | chromatographic logP ([3]; LC-UV in the neutral range, ammonium carbonate in water / acetonitrile, read-out: log P[neutral]) | SMILES | pest or weed control at 4 ppm (Myzus persicae [1]) [%] | pest or weed control at 100 g/ha (Spodoptera frugiperda) [%] | pest or weed control at 100 ppm (Ctenocephalides felis) [%] | efficacy (Phaedon cochleariae) [%] | efficacy (Boophilus microplus) [%] | pest or weed control at 100 g/ha (Myzus persicae [2]) [%] | efficacy (Tetranychus urticae) [%]
– | – | CCS(=O)(=O)c1c(-c2nc3cc(C(F)(F)F)cnc3n2C)nc(-c2cnn(C3CC3)c2)n1C [Example I-6] | 100 | 100 | 100 | 100 | 95 | 100 | –
3.46 | 3.36 | CCS(=O)(=O)c1c(-c2nc3cc(C(F)(F)F)cnc3n2C)nc(-n2ccc(C3CC3)n2)n1C [Example I-9, 2-[2-(3-Cyclopropyl-1H-pyrazol-1-yl)-5-(ethylsulfonyl)-1-methyl-1H-imidazol-4-yl]-3-methyl-6-(trifluoromethyl)-3H-imidazo[4,5-b]pyridine] | 100 | 100 | 90 | 100 | – | 100 | –
– | – | CCS(=O)(=O)c1c(-c2nc3cc(C(F)(F)F)cnc3n2C)nc(-n2cc(Br)c(C3CC3)n2)n1C [Example I-10] | 100 | 100 | 90 | 100 | 90 | 90 | 90
